This series relates to CCRIS mutagenicity, Ames/micronucleus/aberration tests. Description: CCRIS mutagenicity studies.
The mark [1] stands for this setting: Test System: AMES SALMONELLA TYPHIMURIUM, Strain/Indicator: TA100, Metabolic Activation: NONE, Method: PREINCUBATION
[2] abbreviates: Test System: AMES SALMONELLA TYPHIMURIUM, Strain/Indicator: TA98, Metabolic Activation: NONE, Method: PREINCUBATION

Active and inactive are the calls of the source. How the calls were made is not given here.

For `N[C@@H](CCC(=O)N[C@@H](CS)C(=O)NCC(=O)O)C(=O)O`, the mutagenic call was “active; positive” (Test System: AMES SALMONELLA TYPHIMURIUM, Strain/Indicator: TA92, Metabolic Activation: RAT, KIDNEY, S-9, Method: PREINCUBATION); “active; positive” (Test System: AMES SALMONELLA TYPHIMURIUM, Strain/Indicator: TA92, Metabolic Activation: RAT, KIDNEY, S-9, Method: STANDARD PLATE); “active; positive” (Test System: AMES SALMONELLA TYPHIMURIUM, Strain/Indicator: TA97, Metabolic Activation: RAT, KIDNEY, S-9, Method: PREINCUBATION); “active; positive” (Test System: AMES SALMONELLA TYPHIMURIUM, Strain/Indicator: TA97, Metabolic Activation: RAT, KIDNEY, S-9, Method: STANDARD PLATE); “inactive; negative” under setting [1]; “active; positive” (Test System: AMES SALMONELLA TYPHIMURIUM, Strain/Indicator: TA100, Metabolic Activation: RAT, KIDNEY, S-9, Method: PREINCUBATION). The mutagenic call (Test System: AMES SALMONELLA TYPHIMURIUM, Strain/Indicator: TA100, Metabolic Activation: RAT, KIDNEY, S-9, Method: STANDARD PLATE) was “active; positive”; the mutagenic call (Test System: AMES SALMONELLA TYPHIMURIUM, Strain/Indicator: TA102, Metabolic Activation: NONE, Method: PREINCUBATION) is “inactive; negative”; the mutagenic call (Test System: AMES SALMONELLA TYPHIMURIUM, Strain/Indicator: TA102, Metabolic Activation: NONE, Method: STANDARD PLATE) is “inactive; negative”; the mutagenic call (Test System: AMES SALMONELLA TYPHIMURIUM, Strain/Indicator: TA102, Metabolic Activation: RAT, KIDNEY, S-9, Method: PREINCUBATION) was “active; positive”; the mutagenic call (Test System: AMES SALMONELLA TYPHIMURIUM, Strain/Indicator: TA104, Metabolic Activation: RAT, KIDNEY, S-9, Method: PREINCUBATION) is “active; positive”; the mutagenic call (Test System: AMES SALMONELLA TYPHIMURIUM, Strain/Indicator: TA104, Metabolic Activation: RAT, KIDNEY, S-9, Method: STANDARD PLATE) was “inactive; negative”. For the same compound, the mutagenic call runs as follows: (Test System: AMES SALMONELLA TYPHIMURIUM, Strain/Indicator: TA1535, Metabolic Activation: RAT, KIDNEY, S-9, Method: PREINCUBATION) “inactive; negative”; (Test System: AMES SALMONELLA TYPHIMURIUM, Strain/Indicator: TA1537, Metabolic Activation: RAT, KIDNEY, S-9, Method: PREINCUBATION) “inactive; negative”; (Test System: Mouse lymphoma, Strain/Indicator: L5178Y (tk+/tk-), Metabolic Activation: None, Method: Suspension/plate) “active; equivocal (previous evaluation positive)”; (Test System: Mouse lymphoma, Strain/Indicator: L5178Y (tk+/tk-), Metabolic Activation: Rat, Liver, S-9, Aroclor 1254, Method: Suspension/plate) “inactive; negative”.
In the case of `Oc1cc(O)cc(O)c1`, the mutagenic call reads like this: (Test System: AMES SALMONELLA TYPHIMURIUM, Strain/Indicator: TA97, Metabolic Activation: NONE, Method: PREINCUBATION) “inactive; negative”; (Test System: AMES SALMONELLA TYPHIMURIUM, Strain/Indicator: TA97, Metabolic Activation: RAT, LIVER, S-9, PHENOBARBITAL, Method: PREINCUBATION) “inactive; negative”; (Test System: AMES SALMONELLA TYPHIMURIUM, Strain/Indicator: TA98, Metabolic Activation: NONE) “inactive; negative”; under setting [2], “inactive; negative”; (Test System: AMES SALMONELLA TYPHIMURIUM, Strain/Indicator: TA98, Metabolic Activation: RAT, LIVER, S-9, PHENOBARBITAL, Method: PREINCUBATION) “inactive; negative”; (Test System: AMES SALMONELLA TYPHIMURIUM, Strain/Indicator: TA98, Metabolic Activation: S-9) “inactive; negative”. The mutagenic call under setting [1] is “inactive; negative” and the mutagenic call (Test System: AMES SALMONELLA TYPHIMURIUM, Strain/Indicator: TA100, Metabolic Activation: RAT, LIVER, S-9, PHENOBARBITAL, Method: PREINCUBATION) was “inactive; negative”.
As to `CCCc1cc2ccccc2c2ccc3c(c12)C1OC1C(O)C3O` (stereo unspecified), the mutagenic call under setting [1] is “inactive; negative”.
With `Oc1ccc2cc3c4ccccc4c4ccccc4c3cc2c1`, the mutagenic call (Test System: AMES SALMONELLA TYPHIMURIUM, Strain/Indicator: TA100, Metabolic Activation: RAT, LIVER, S-9, AROCLOR 1254, Method: PREINCUBATION) is “active; positive”.
Consider `Nc1cnc2ccccc2c1`, for which the mutagenic call reads like this: under setting [2], “inactive; negative”; (Test System: AMES SALMONELLA TYPHIMURIUM, Strain/Indicator: TA98, Metabolic Activation: RAT, LIVER, S-9, KANECHLOR 500 OR PHENOBARBITAL AND BETA-NAPHTHOFLAVONE, Method: PREINCUBATION) “active; positive”; under setting [1], “inactive; negative”; (Test System: AMES SALMONELLA TYPHIMURIUM, Strain/Indicator: TA100, Metabolic Activation: RAT, LIVER, S-9, KANECHLOR 500 OR PHENOBARBITAL AND BETA-NAPHTHOFLAVONE, Method: PREINCUBATION) “active; positive”.
Regarding `Cc1ccc(N=Nc2ccc(C)c(N)c2)cc1N`, the mutagenic call under setting [2] was “inactive; negative”; the mutagenic call (Test System: AMES SALMONELLA TYPHIMURIUM, Strain/Indicator: TA98, Metabolic Activation: NONE, Method: SUSPENSION/PLATE) is “inactive; negative”; the mutagenic call (Test System: AMES SALMONELLA TYPHIMURIUM, Strain/Indicator: TA98, Metabolic Activation: RAT, LIVER, S-9, PCB, Method: PREINCUBATION) was “active; positive”; the mutagenic call (Test System: AMES SALMONELLA TYPHIMURIUM, Strain/Indicator: TA98, Metabolic Activation: RAT, LIVER, S-9, PHENOBARBITAL AND 5,6-BENZOFLAVONE, Method: SUSPENSION/PLATE) was “active; positive”; the mutagenic call (Test System: AMES SALMONELLA TYPHIMURIUM, Strain/Indicator: TA100, Metabolic Activation: NONE, Method: SUSPENSION/PLATE) was “inactive; negative”; the mutagenic call (Test System: AMES SALMONELLA TYPHIMURIUM, Strain/Indicator: TA100, Metabolic Activation: RAT, LIVER, S-9, PHENOBARBITAL AND 5,6-BENZOFLAVONE, Method: SUSPENSION/PLATE) was “active; positive”.

For the origin of these results see PubChem BioAssay AID1259407 (Chemical Carcinogenesis Research Information System (CCRIS), 2018).
